system: Antibody to Immunogen V; type: binding, sheep; settings: not given
Protocol: (§1) The wells of an enhanced binding 96 well polystyrene microtiter plate were coated with IgG fraction of antiserum raised to Immunogen VI, diluted in 10mM Tris, pH8.5 (125µl/well). The appropriate antibody coating dilution was determined using standard ELISA checkerboard techniques. The plate was incubated overnight at 4°C, washed 4 times over 10 minutes with Tris buffered saline containing Tween 20 (TBST) and tapped dry. Standard solutions of RCS-4 were prepared in TBST at 0, 0.3125, 0.625, 1.25, 2.5, 5, 10 and 20ng/ml, and 50µl of each was added to the appropriate wells (see figure 1). 75µl of conjugate (appropriate hapten-HRP) diluted in Tris buffer (pH 7.2) containing EDTA, D-mannitol, sucrose, thimerosal and BSA, was added to each of the wells. The appropriate dilution of conjugate was also determined using standard ELISA checkerboard techniques. The plate was incubated at 25°C for 1 hour. Excess unbound conjugate was removed by washing 6 times over a 10 minute period with TBST. 125µl oftetramethylbenzidine (TMB) substrate solution was added to each well of the plate that was then incubated for 20 minutes in the dark at room temperature. The reaction was terminated by addition of 125µl 0.2M H2SO4 to each well. The absorbance was then measured at 450nm using a microtiter plate reader. The data are inputted to a computer program called 'KC Junior'. It is a 4 parameter fit curve and allow the calculatation of concentrations between the standard runs. This program is used to calculate the IC50s by dividing the 0ng/ml OD value by 2 and obtaining the concentration value from the curve for this OD.
In a similar manner to that described above, the wells of a 96-well microtiter plate were coated with the IgG fraction of the antiserum raised to Immunogens IV, V, VII or VIII. Standard solutions (RCS-8 for Immunogen V) were prepared in TBST at 0, 1.25, 2.5, 5, 10, 20, 40 and 80ng/ml and conjugate was employed as detection reagent.
(§2) The data set our in Tables 3 and 4 are generated using antibodies raised against the indicated Immunogens in a competitive binding assay with the indicated tracers, using the indicated standards: Table 2
(§3) In order to determine the specificity of the competitive ELISAs, standard solutions of a range of structurally similar synthetic cannabinoids and their metabolites were prepared in TBST. Using the calibration curves generated and employing a single level of cross reactants, these were used to determine the cross-reactivity of each immunoassay with these substances. Table 4: Cross reactivity of the competitive ELISAs for synthetic cannabinoids and their metabolites

(-)-11-nor-9-Carboxy-delta9-THC was tested, and the “%B/B0” value was 89.31%.

same assay, conditions: Cross-reactants at 100 ng/ml; 1000ng/ml; single level of cross reactants

Going from `CCCCCn1cc(C(=O)Cc2ccc(Cl)cc2)c2ccccc21` [JWH-206 (JWH-203 4-chloro isomer)] to `CCCCCn1cc(C(=O)Cc2cccc(OC)c2)c2ccccc21` [JWH-302], the “%B/B0” value falls from 51.00% to 32.66%.

Compared with `CCCCCn1cc(C(=O)c2c(CC)ccc3ccccc23)c2ccccc21` [JWH-210 2-ethylnaphthyl isomer], `CCCCCn1cc(C(=O)c2ccc(CC)c3ccccc23)c2ccccc21` [JWH-210] is lower in “%B/B0” value: 85.10% for the first, 70.20% for the second.

Compared with `CCCCCn1cc(C(=O)c2ccc(CC)c3ccccc23)c2cc(O)ccc21` [JWH-210 5-hydroxyindole metabolite], `CCc1ccc(C(=O)c2cn(CCCCCC(=O)O)c3ccccc23)c2ccccc12` [JWH-210 N-(5-carboxypentyl) metabo lite] is lower in “%B/B0” value: 79.94% for the first, 70.77% for the second.

Going from `CCCCCn1cc(C(=O)c2cccc3ccc(CC)cc23)c2ccccc21` [JWH-210 7-ethylnaphthyl isomer or JWH-234] to `CCCCCn1cc(C(=O)c2cccc3c(Cl)cccc23)c2ccccc21` [JWH-398 5-chloronaphthyl isomer], the “%B/B0” value falls from 85.10% to 70.34%.

First: CCCCCn1cc(C(=O)Cc2ccccc2OC)c2ccccc21 [JWH-250, 2-(2-methoxyphenyl)-1-(1-pentyl-1H-indol-3-yl)ethanone]
Second: CCCCCn1cc(C(=O)Cc2ccccc2C)c2ccccc21 [JWH-251]
The “%B/B0” value of the first is lower: 8.74% for the first, 13.61% for the second.

First: O=C(c1ccc(Cl)c2ccccc12)c1cn(CCCCCO)c2ccccc12 [JWH-398 N-(5-hydroxypentyl) metabo lite]
Second: CCCCCn1cc(C(=O)c2ccc(Cl)c3ccccc23)c2ccccc21 [JWH-398]
The “%B/B0” value of the first is lower: 55.87% for the first, 65.76% for the second.

`O=C(c1cccc2ccccc12)c1c[nH]c2ccccc12` [N-desalkyl JWH-018: LK1012 10CD194] was tested, and the “%B/B0” value was 81.80%.

system: Antibody to Immunogen III; type: binding, sheep; settings: not given
Protocol: as §1
In a similar manner to that described above, the wells of a 96-well microtiter plate were coated with the IgG fraction of the antiserum raised to Immunogens I, II or III. Standard solutions (JWH-250 for Immunogen III) were applied at 0, 0.625, 1.25, 2.5, 5, 10, 20 and 40ng/ml and conjugate was employed as detection reagent.
as §2, §3

For (-)-11-nor-9-Carboxy-delta9-THC, the “%B/B0” value was 89.45%.

same assay, conditions: Cross-reactants at 100 ng/ml; 1000ng/ml; single level of cross reactants

Compared with `CCCCCn1cc(C(=O)Cc2ccc(Cl)cc2)c2ccccc21` [JWH-206 (JWH-203 4-chloro isomer)], `CCCCCn1cc(C(=O)Cc2cccc(OC)c2)c2ccccc21` [JWH-302] is lower in “%B/B0” value: 26.33% for the first, 19.97% for the second.

First: CCCCCn1cc(C(=O)c2c(CC)ccc3ccccc23)c2ccccc21 [JWH-210 2-ethylnaphthyl isomer]
Second: CCCCCn1cc(C(=O)c2ccc(CC)c3ccccc23)c2ccccc21 [JWH-210]
The “%B/B0” value of the first is higher: 85.02% for the first, 69.64% for the second.

Going from `CCCCCn1cc(C(=O)c2ccc(CC)c3ccccc23)c2cc(O)ccc21` [JWH-210 5-hydroxyindole metabolite] to `CCc1ccc(C(=O)c2cn(CCCCCC(=O)O)c3ccccc23)c2ccccc12` [JWH-210 N-(5-carboxypentyl) metabo lite], the “%B/B0” value rises from 87.01% to 94.24%.

Compared with `CCCCCn1cc(C(=O)c2cccc3ccc(CC)cc23)c2ccccc21` [JWH-210 7-ethylnaphthyl isomer or JWH-234], `CCCCCn1cc(C(=O)c2cccc3c(Cl)cccc23)c2ccccc21` [JWH-398 5-chloronaphthyl isomer] is lower in “%B/B0” value: 73.32% for the first, 64.92% for the second.

First: CCCCCn1cc(C(=O)Cc2ccccc2OC)c2ccccc21 [JWH-250, 2-(2-methoxyphenyl)-1-(1-pentyl-1H-indol-3-yl)ethanone]
Second: CCCCCn1cc(C(=O)Cc2ccccc2C)c2ccccc21 [JWH-251]
The “%B/B0” value of the first is lower: 11.91% for the first, 17.28% for the second.

Going from `O=C(c1ccc(Cl)c2ccccc12)c1cn(CCCCCO)c2ccccc12` [JWH-398 N-(5-hydroxypentyl) metabo lite] to `CCCCCn1cc(C(=O)c2ccc(Cl)c3ccccc23)c2ccccc21` [JWH-398], the “%B/B0” value falls from 76.01% to 71.37%.

`O=C(c1cccc2ccccc12)c1c[nH]c2ccccc12` [N-desalkyl JWH-018: LK1012 10CD194] was tested, and the “%B/B0” value was 99.73%.

same assay, conditions: standard JWH-250; standard concentration which produces 50% B/B0

`CCCCCn1cc(C(=O)Cc2ccccc2OC)c2ccccc21` [JWH-250, 2-(2-methoxyphenyl)-1-(1-pentyl-1H-indol-3-yl)ethanone] was tested, and the “IC50” value was 3.850 ng/mL.

same assay, conditions: standard curve, JWH-250 1 ng/ml (first row printed 1)

In the case of `CCCCCn1cc(C(=O)Cc2ccccc2OC)c2ccccc21` [JWH-250, 2-(2-methoxyphenyl)-1-(1-pentyl-1H-indol-3-yl)ethanone], the “%B/B0” value is reported as 84%.

same assay, conditions: standard curve, JWH-250 1 ng/ml (second row printed 1)

For `CCCCCn1cc(C(=O)Cc2ccccc2OC)c2ccccc21` [JWH-250, 2-(2-methoxyphenyl)-1-(1-pentyl-1H-indol-3-yl)ethanone], the “%B/B0” value was 70%.

same assay, conditions: standard curve, JWH-250 3 ng/ml

In the case of `CCCCCn1cc(C(=O)Cc2ccccc2OC)c2ccccc21` [JWH-250, 2-(2-methoxyphenyl)-1-(1-pentyl-1H-indol-3-yl)ethanone], the “%B/B0” value is reported as 59%.

same assay, conditions: standard curve, JWH-250 5 ng/ml

With `CCCCCn1cc(C(=O)Cc2ccccc2OC)c2ccccc21` [JWH-250, 2-(2-methoxyphenyl)-1-(1-pentyl-1H-indol-3-yl)ethanone] the “%B/B0” value was 43%.

same assay, conditions: standard curve, JWH-250 10 ng/ml

`CCCCCn1cc(C(=O)Cc2ccccc2OC)c2ccccc21` [JWH-250, 2-(2-methoxyphenyl)-1-(1-pentyl-1H-indol-3-yl)ethanone] was tested, and the “%B/B0” value was 38%.

same assay, conditions: standard curve, JWH-250 20 ng/ml

With `CCCCCn1cc(C(=O)Cc2ccccc2OC)c2ccccc21` [JWH-250, 2-(2-methoxyphenyl)-1-(1-pentyl-1H-indol-3-yl)ethanone] the “%B/B0” value was 29%.

same assay, conditions: standard curve, JWH-250 40 ng/ml

In the case of `CCCCCn1cc(C(=O)Cc2ccccc2OC)c2ccccc21` [JWH-250, 2-(2-methoxyphenyl)-1-(1-pentyl-1H-indol-3-yl)ethanone], the “%B/B0” value is reported as 23%.

system: Antibody to Immunogen VI; type: binding, sheep; settings: not given
Protocol: as §1, §2, §3

(-)-11-nor-9-Carboxy-delta9-THC was tested, and the “%B/B0” value was 96.32%.

same assay, conditions: Cross-reactants at 100 ng/ml; 1000ng/ml; single level of cross reactants

First: CCCCCn1cc(C(=O)Cc2ccc(Cl)cc2)c2ccccc21 [JWH-206 (JWH-203 4-chloro isomer)]
Second: CCCCCn1cc(C(=O)Cc2cccc(OC)c2)c2ccccc21 [JWH-302]
The “%B/B0” value of the first is higher: 78.35% for the first, 71.16% for the second.

First: CCCCCn1cc(C(=O)c2c(CC)ccc3ccccc23)c2ccccc21 [JWH-210 2-ethylnaphthyl isomer]
Second: CCCCCn1cc(C(=O)c2ccc(CC)c3ccccc23)c2ccccc21 [JWH-210]
The “%B/B0” value of the first is higher: 89.90% for the first, 72.07% for the second.

Going from `CCCCCn1cc(C(=O)c2ccc(CC)c3ccccc23)c2cc(O)ccc21` [JWH-210 5-hydroxyindole metabolite] to `CCc1ccc(C(=O)c2cn(CCCCCC(=O)O)c3ccccc23)c2ccccc12` [JWH-210 N-(5-carboxypentyl) metabo lite], the “%B/B0” value falls from 86.92% to 63.50%.

Going from `CCCCCn1cc(C(=O)c2cccc3ccc(CC)cc23)c2ccccc21` [JWH-210 7-ethylnaphthyl isomer or JWH-234] to `CCCCCn1cc(C(=O)c2cccc3c(Cl)cccc23)c2ccccc21` [JWH-398 5-chloronaphthyl isomer], the “%B/B0” value falls from 87.07% to 76.13%.

Compared with `CCCCCn1cc(C(=O)Cc2ccccc2OC)c2ccccc21` [JWH-250, 2-(2-methoxyphenyl)-1-(1-pentyl-1H-indol-3-yl)ethanone], `CCCCCn1cc(C(=O)Cc2ccccc2C)c2ccccc21` [JWH-251] is lower in “%B/B0” value: 82.17% for the first, 79.72% for the second.

Compared with `O=C(c1ccc(Cl)c2ccccc12)c1cn(CCCCCO)c2ccccc12` [JWH-398 N-(5-hydroxypentyl) metabo lite], `CCCCCn1cc(C(=O)c2ccc(Cl)c3ccccc23)c2ccccc21` [JWH-398] is higher in “%B/B0” value: 69.24% for the first, 72.30% for the second.

For `O=C(c1cccc2ccccc12)c1c[nH]c2ccccc12` [N-desalkyl JWH-018: LK1012 10CD194], the “%B/B0” value was 87.49%.

Reference: patent EP2698384A1, “Detection of synthetic cannabinoids” (priority 2012, dated 2014)
